Key:
[1] = Form stability at high temperature and humidity (uncovered vial in stability chamber, then PXRD / 1H NMR analysis); assay type: physicochemical; set-up: key to Form stability result (PXRD): NC: no change in PXRD; settings: 40° C./75% RH
Method: PXRD diffractograms were recorded on a Bruker D8 Discover powder X-ray diffractometer (Bruker AXS LLC, Karlsruhe, Germany). The sample holder was oscillated along X and Y axes during the measurement. The generator was a Incoatec Microfocus Source (IμS) Cu tube (λ=1.54060 Å) with a voltage of 50 kV and current of 1.00 mA, using a divergence slit of 0.3 mm and collimator of 0.3 mm. For each sample, one frame was collected using a still scan with a PILATUS3 R 100K-A detector at the distance of 154.72 mm from the sample. Raw data were evaluated using the program DIFFRAC.EVA (Bruker AXS LLC, Karlsruhe, Germany).
Samples were kept in an uncovered vial in a stability chamber maintained at 40° C./75% relative humidity (RH) for the specified period prior to PXRD analysis to evaluate form stability.

[2] = cited from earlier work
[3] = cited from earlier work; remark: listed apart in the source
[4] = cited from earlier work; remark: listed apart in the source

SMILES | Form stability result (PXRD) ([1]; 1 month) | Form stability result (PXRD) ([1]; 3 months) | also measured
CC1=CC(=O)NS(=O)(=O)O1.COC(=O)c1ccc2c(c1)NC(=O)C2=C(Nc1ccc(N(C)C(=O)CN2CCN(C)CC2)cc1)c1ccccc1 [Nintedanib acesulfamate Form APO-I, nintedanib acesulfamate] | NC |  | 
COC(=O)c1ccc2c(c1)NC(=O)C2=C(Nc1ccc(N(C)C(=O)CN2CCN(C)CC2)cc1)c1ccccc1.O=C(O)CNC(=O)c1ccccc1 [Nintedanib hippurate Form APO-I, nintedanib hippurate] |  | NC | 1H NMR spectroscopy following storage ([1]; after storage (3 months per Table 8)): no change
CC(=O)CCC(=O)O.COC(=O)c1ccc2c(c1)NC(=O)C2=C(Nc1ccc(N(C)C(=O)CN2CCN(C)CC2)cc1)c1ccccc1 [Nintedanib levulinate Form APO-I, nintedanib levulinate] |  | NC | 
COC(=O)c1ccc2c(c1)NC(=O)C2=C(Nc1ccc(N(C)C(=O)CN2CCN(C)CC2)cc1)c1ccccc1.O=C1NS(=O)(=O)c2ccccc21 [Nintedanib saccharinate Form APO-I, nintedanib saccharinate] | NC |  | 
CC1=CC(=O)NS(=O)(=O)O1.CC1=CC(=O)NS(=O)(=O)O1.COC(=O)c1ccc2c(c1)NC(=O)C2=C(Nc1ccc(N(C)C(=O)CN2CCN(C)CC2)cc1)c1ccccc1 [Nintedanib diacesulfamate Form APO-I, nintedanib diacesulfamate] |  | NC | 
COC(=O)c1ccc2c(c1)NC(=O)C2=C(Nc1ccc(N(C)C(=O)CN2CCN(C)CC2)cc1)c1ccccc1.O=C(O)CCCC(=O)O [Nintedanib glutarate Form APO-I, nintedanib glutarate] | NC |  | 
COC(=O)c1ccc2c(c1)NC(=O)/C2=C(\Nc1ccc(N(C)C(=O)CN2CCN(C)CC2)cc1)c1ccccc1 [nintedanib esylate, (3Z)-2,3-dihydro-3-[[[4-[methyl[(4-methyl-1-piperazinyl)acetyl]amino]phenyl]amino]phenylmethylene]-2-oxo-1H-indole-6-carboxylic acid methyl ester] |  |  | Bioavailability in humans [2]: low; Solubility in neutral aqueous conditions [3]: poor; Chemical stability in the presence of water [4]: undergo hydrolysis

Reference: US20230093124A1, “Salts of Nintedanib and Crystalline Forms Thereof” (Apotex Inc., priority 2021, published 2023)
